One test relates to HEK293. Nature of the test: Cellular IC50 HEK293. In kind it is cell-based. Particulars: Homo sapiens. An excerpt:
(§1) XLfit (idbs) was used to determine the IC50-values in inhibition experiments. The following formula was chosen to fit the data points (Langmuir Binding Isotherm): fit=((A+(B*x))+4(C−B)*(1−exp((−1*D)*x)))/D)), res=(y−fit)

The next test deals with TNKS2 (Homo sapiens (Human), UniProt Q9H2K2). The test is described as follows: Biochemical IC50 TNKS2. Conditions: read-out: Biochemical IC50 TNKS2.
Chain of TNKS2 (Q9H2K2 whole entry): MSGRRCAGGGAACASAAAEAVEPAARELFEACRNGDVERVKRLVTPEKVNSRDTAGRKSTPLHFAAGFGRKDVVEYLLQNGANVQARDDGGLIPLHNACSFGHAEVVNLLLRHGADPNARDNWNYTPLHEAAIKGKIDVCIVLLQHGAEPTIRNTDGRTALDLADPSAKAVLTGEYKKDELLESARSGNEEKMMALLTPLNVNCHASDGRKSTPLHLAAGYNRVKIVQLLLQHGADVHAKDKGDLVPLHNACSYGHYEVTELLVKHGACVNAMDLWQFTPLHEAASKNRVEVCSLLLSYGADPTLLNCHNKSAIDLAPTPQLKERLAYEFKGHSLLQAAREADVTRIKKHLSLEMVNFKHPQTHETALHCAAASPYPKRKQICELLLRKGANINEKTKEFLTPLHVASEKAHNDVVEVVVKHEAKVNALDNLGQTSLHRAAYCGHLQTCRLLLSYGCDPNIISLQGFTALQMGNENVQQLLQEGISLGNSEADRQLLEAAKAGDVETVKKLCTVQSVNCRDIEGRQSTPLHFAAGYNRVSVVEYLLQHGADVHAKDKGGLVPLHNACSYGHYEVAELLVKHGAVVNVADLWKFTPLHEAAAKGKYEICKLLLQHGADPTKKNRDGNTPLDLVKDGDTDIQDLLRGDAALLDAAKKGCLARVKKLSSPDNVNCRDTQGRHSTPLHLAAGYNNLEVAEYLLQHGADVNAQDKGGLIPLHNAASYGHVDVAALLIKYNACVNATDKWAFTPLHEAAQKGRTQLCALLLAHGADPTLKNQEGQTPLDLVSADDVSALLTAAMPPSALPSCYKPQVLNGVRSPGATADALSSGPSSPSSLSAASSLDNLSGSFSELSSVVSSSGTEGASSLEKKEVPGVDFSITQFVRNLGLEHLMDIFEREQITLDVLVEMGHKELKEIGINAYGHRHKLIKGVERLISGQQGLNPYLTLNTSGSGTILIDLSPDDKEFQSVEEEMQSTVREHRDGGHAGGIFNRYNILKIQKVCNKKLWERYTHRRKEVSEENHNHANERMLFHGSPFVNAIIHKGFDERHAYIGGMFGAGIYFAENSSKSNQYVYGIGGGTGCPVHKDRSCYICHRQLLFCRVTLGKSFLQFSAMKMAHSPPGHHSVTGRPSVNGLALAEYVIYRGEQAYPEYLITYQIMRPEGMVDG
Excerpt: as §1

The mark [1] stands for this setting: HEK293, HEK293, read-out: Cellular IC50 HEK293.

Read-outs that look alike come from different tables or passages of the source.

In general, IC50 refers to the midpoint of a concentration-inhibition curve. On to `CCOc1ccc(-c2nnc([C@H]3C[C@H](NC(=O)c4ccnc5cccnc45)C3)n2-c2ccc(Cl)s2)nc1` [Example 76, N-((1r,3r)-3-(4-(5-chlorothiophen-2-yl)-5-(5-ethoxypyridin-2-yl)-4H-1,2,4-triazol-3-yl)cyclobutyl)-1,5-naphthyridine-4-carboxamide], for which the IC50 was determined as 1.1 nM in the test with HEK293 (setting [1]) and 2 nM at TNKS2.

Regarding `CCOc1ccc(-c2nnc([C@H]3C[C@H](NC(=O)c4cc5cnccc5[nH]4)C3)n2-c2ccccc2F)nc1` [Example 157, N-((1S,3r)-3-(5-(5-ethoxypyridin-2-yl)-4-(2-fluorophenyl)-4H-1,2,4-triazol-3-yl)cyclobutyl)-1H-pyrrolo[3,2-c]pyridine-2-carboxamide], the concentration for half-maximal inhibition (IC50) in the test on HEK293 (setting [1]) came out at 34 nM; at TNKS2, 4.4 nM.

Consider `CCOc1ccc(-c2nnc(C34CC(NC(=O)c5ccnc6cc(F)cnc56)(C3)C4)n2-c2ccc(C)s2)nc1` [Example 86, N-(3-(5-(5-ethoxypyridin-2-yl)-4-(5-methylthiophen-2-yl)-4H-1,2,4-triazol-3-yl)bicyclo[1.1.1]pentan-1-yl)-7-fluoro-1,5-naphthyridine-4-carboxamide], for which the IC50 with HEK293 (setting [1]) was found to be 1.7 nM; at TNKS2 it was 2.2 nM.

For the molecule `O=C(N[C@H]1C[C@H](c2nnc(-c3nccs3)n2-c2ccccn2)C1)c1cccc2cccnc12` [Example 38, N-((1r,3r)-3-(4-(pyridin-2-yl)-5-(thiazol-2-yl)-4H-1,2,4-triazol-3-yl)cyclobutyl)quinoline-8-carboxamide], the IC50 is 46 nM in the test on HEK293 (setting [1]) and 45 nM on TNKS2.

As for `O=C(N[C@H]1C[C@H](c2nnc(-c3ccncn3)n2-c2ccccc2Cl)C1)c1cccc(F)n1` [Example 19, N-((1S,3r)-3-(4-(2-chlorophenyl)-5-(pyrimidin-4-yl)-4H-1,2,4-triazol-3-yl)cyclobutyl)-6-fluoropicolinamide], the IC50 in the test with HEK293 (setting [1]) worked out at 0.86 nM; on TNKS2, 3 nM.

Consider `CCOc1ccc(-c2nnc([C@H]3C[C@H](NC(=O)c4ccccn4)C3)n2-c2ccc(C)s2)nc1` [Example 81, N-((1r,3r)-3-(5-(5-ethoxypyridin-2-yl)-4-(5-methylthiophen-2-yl)-4H-1,2,4-triazol-3-yl)cyclobutyl)picolinamide], for which the IC50 was 37 nM in the test on HEK293 (HEK293, read-out: Cellular IC50 HEK293) and 4.6 nM at TNKS2.

In the case of `O=C(N[C@H]1C[C@H](c2nnc(-c3nccs3)n2-c2ccccc2F)C1)c1ccc(F)cc1` [Example 28, 4-fluoro-N-((1S,3r)-3-(4-(2-fluorophenyl)-5-(thiazol-2-yl)-4H-1,2,4-triazol-3-yl)cyclobutyl)benzamide], the concentration for half-maximal inhibition (IC50) with HEK293 (setting [1]) was 240 nM; on TNKS2, 51 nM.

Take `CCOc1ccc(-c2nnc([C@H]3C[C@H](NC(=O)c4ccc5cnccc5n4)C3)n2-c2ccccc2F)nc1` [Example 97, N-((1S,3r)-3-(5-(5-ethoxypyridin-2-yl)-4-(2-fluorophenyl)-4H-1,2,4-triazol-3-yl)cyclobutyl)-1,6-naphthyridine-2-carboxamide]: the figures for the IC50 in the test on HEK293 (setting [1]) and on TNKS2 were 7.5 nM and 2.5 nM, respectively.

In the case of `O=C(N[C@H]1C[C@H](c2nnc(-c3ccncn3)n2-c2ccccc2Cl)C1)c1cccc2cccnc12` [Example 4, N-((1S,3r)-3-(4-(2-chlorophenyl)-5-(pyrimidin-4-yl)-4H-1,2,4-triazol-3-yl)cyclobutyl)quinoline-8-carboxamide], the IC50 in the test with HEK293 (setting [1]) turned out to be 1 nM; at TNKS2, 5.4 nM.

Take `O=C(N[C@H]1C[C@H](c2nnc(-c3nccs3)n2-c2ccc(Cl)s2)C1)c1ccnc2cccnc12` [Example 78, N-((1r,3r)-3-(4-(5-chlorothiophen-2-yl)-5-(thiazol-2-yl)-4H-1,2,4-triazol-3-yl)cyclobutyl)-1,5-naphthridine-4-carboxamide]: the IC50 with HEK293 (setting [1]) was 1.1 nM; at TNKS2, 2 nM.

Take `O=C(N[C@H]1C[C@H](c2nnc(-c3ccccn3)n2-c2ccccc2F)C1)c1ccc2cnccc2n1` [Example 192, N-((1S,3r)-3-(4-(2-fluorophenyl)-5-(pyridin-2-yl)-4H-1,2,4-triazol-3-yl)cyclobutyl)-1,6-naphthyridine-2-carboxamide]: the IC50 with HEK293 (setting [1]) worked out at 5.3 nM; on TNKS2, 4.3 nM.

The values are drawn from patent publication US11926614B2, “1,2,4-triazole derivatives as tankyrase inhibitors” (priority 2018, dated 2024).
